Assays:
[1] = SEM imaging of drug particles on hydrogel; format: physicochemical; conditions: SEM at 20,000x magnification
Protocol: For initial feasibility spray examples, griseofulvin (0.09023 g), a poorly water soluble antifungal agent, was dissolved in a mixture of ethanol (9 ml) and acetone (6 ml). A hydrogel sample, approximately 5 mm in largest diameter, removed from a borate buffer solution and placed on a metallic spray platform beneath the ElectroNanospray device's dual capillary spray head. The solution was sprayed in the cone jet mode at 4.17 kV at 5 μl/min and a distance of 15.6 mm from the hydrogel. Spray time was 20 minutes. The surface pattern seen in the SEM image shown in FIGS. 39A and 39B show a uniform, closely packed surface of approximately 200 nm particles at 20,000× magnification.

[2] = HPLC retention time of eluted peptide before and after ElectroNanospray (structural integrity); format: physicochemical; conditions: sprayed in aqueous solution onto stents and stainless steel plates
Protocol: General HPLC methods to quantify dexamethasone (DXM) and three peptides (luteinizing hormone releasing hormone (human; LHRH), angiotensin I, and insulin chain B) were developed using an HP 1090 system equipped with a narrowbore column (Zorbax SB C-18, 2.1 mm i.d.×150 mm, 3.5 μm) and UV detector. Data integration and processing were performed with Agilent ChemStation software (Rev. A.08.03). Peak areas were obtained by subtracting the baseline (from a “blank” injection of the sample matrix) from the experimental chromatogram. DXM was analyzed with the following method: 20/80 to 100/0 to 20/80 acetonitrile/water in 3 min and 3.01 min at 0.6 mL/min, end run at 6 min; 65° C.; 10 μL injection volume. DXM, which was detected at 243 nm, eluted at 2.27 min. The calibration curve for DXM (obtained from Alexis Biochemicals) generated with seven standard concentrations ranging from 0.5 to 30 μg/ml in acetonitrile was adequately linear (R^2=0.9999) and the limit of quantification (LOQ) was 0.5 μg/ml. The peptides (all obtained from Sigma-Aldrich) were analyzed with the following method: 20/80 to 50/50 to 20/80 acetonitrile/water buffered with 0.1% (v/v) perchloric acid in 5 min and 5.01 min at 0.4 mL/min, end run at 9 min; 65° C.; 10 μL injection volume; 210 nm detection wavelength. The retention of the peptides was measured before and after the ElectroNanospray process described earlier. LHRH eluted at 2.61 min, angiotensin I eluted at 3.54 min, and insulin B chain eluted at 4.71 min. Calibration curves for the peptides were obtained using five standard concentrations ranging from 1.25 to 50 μg/ml in a solution of 10 mM perchloric acid in water. The LOD for LHRH, angiotensin I and insulin chain B were 0.19, 0.25 and 0.34 μg/ml, respectively. System suitability and injection reproducibility tests were satisfactory.
We identified and sourced three readily available peptides of varying chain length, LHRH, angiotensin I, and insulin B chain. These were sprayed in aqueous solution onto both stents and stainless steel plates. […]

| particle size on hydrogel surface [1] | Compound | HPLC retention time after spraying compared to before spraying [2] |
| --- | --- | --- |
| approximately 200 nm | COC1=CC(=O)C[C@@H](C)[C@]12Oc1c(Cl)c(OC)cc(OC)c1C2=O [griseofulvin] |  |
|  | insulin B chain | unchanged |
|  | angiotensin I (DRVYIHPFHL; Angiotensin-1; UniProt P01019 25-34, looked up) [model peptide obtained from Sigma-Aldrich] | unchanged |
|  | Luteinizing hormone releasing hormone [LHRH] | unchanged |

Source: patent publication US9248217B2, “Nanoparticle coating of surfaces” (Nanocopocia, LLC, priority 2006, dated 2016)
